PubChem BioAssay (NCI)
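Step 1: Grow cells in 96-well plates. Step 2: Expose to compound for 48 hours at 5 concentrations. Step 3: Interpolate endpoints linearly; if unreached, use highest concentration. Definition used: TGI = concentration required for complete inhibition of growth.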

Assays:
Experiment in all cases: NCI-60 cell line screen, 48 h
HOP-62 NSCLC = test system: HOP-62 NSCLC
HT29 colon = test system: HT29 colon
DMS 114 small cell lung = test system: DMS 114 small cell lung
UACC-257 melanoma = test system: UACC-257 melanoma
LOX IMVI melanoma = test system: LOX IMVI melanoma
SN12C renal = test system: SN12C renal
SF-539 CNS = test system: SF-539 CNS
HCT-116 colon = test system: HCT-116 colon
A549 NSCLC = test system: A549 NSCLC
IGROV1 ovarian = test system: IGROV1 ovarian
M19-MEL melanoma = test system: M19-MEL melanoma
SNB-78 CNS = test system: SNB-78 CNS
CCRF-CEM leukemia = test system: CCRF-CEM leukemia
UACC-62 melanoma = test system: UACC-62 melanoma
NCI-H460 lung = test system: NCI-H460 lung
SNB-75 CNS = test system: SNB-75 CNS
OVCAR-3 ovarian = test system: OVCAR-3 ovarian
SR leukemia = test system: SR leukemia
SF-295 CNS = test system: SF-295 CNS
RPMI-8226 leukemia = test system: RPMI-8226 leukemia
RXF 393 renal = test system: RXF 393 renal
M14 melanoma = test system: M14 melanoma
ACHN renal = test system: ACHN renal
SK-OV-3 ovarian = test system: SK-OV-3 ovarian
NCI-H226 lung = test system: NCI-H226 lung
TK-10 renal = test system: TK-10 renal
SK-MEL-5 melanoma = test system: SK-MEL-5 melanoma
EKVX NSCLC = test system: EKVX NSCLC
HOP-92 NSCLC = test system: HOP-92 NSCLC
SK-MEL-2 melanoma = test system: SK-MEL-2 melanoma
HL-60(TB) leukemia = test system: HL-60(TB) leukemia
SNB-19 CNS = test system: SNB-19 CNS
LXFL 529 NSCLC = test system: LXFL 529 NSCLC
DMS 273 small cell lung = test system: DMS 273 small cell lung
OVCAR-8 ovarian = test system: OVCAR-8 ovarian
OVCAR-4 ovarian = test system: OVCAR-4 ovarian
HCT-15 colon = test system: HCT-15 colon
XF 498 CNS = test system: XF 498 CNS
CAKI-1 renal = test system: CAKI-1 renal
786-0 renal = test system: 786-0 renal
UO-31 renal = test system: UO-31 renal
NCI-H23 lung = test system: NCI-H23 lung
NCI-H522 lung = test system: NCI-H522 lung
U251 CNS = test system: U251 CNS
OVCAR-5 ovarian = test system: OVCAR-5 ovarian
KM12 colon = test system: KM12 colon
DLD-1 colon = test system: DLD-1 colon
HOP-18 NSCLC = test system: HOP-18 NSCLC
K-562 leukemia = test system: K-562 leukemia
SW-620 colon = test system: SW-620 colon
SF-268 CNS = test system: SF-268 CNS
COLO 205 colon = test system: COLO 205 colon
SK-MEL-28 melanoma = test system: SK-MEL-28 melanoma
KM20L2 colon = test system: KM20L2 colon
MOLT-4 leukemia = test system: MOLT-4 leukemia
MALME-3M melanoma = test system: MALME-3M melanoma
A498 renal = test system: A498 renal

Measured: TGI

CC1=CC2CCC1(C)C/C2=C(/C)OC=O (stereo not given)
not listed: MALME-3M melanoma | A498 renal
> 100 µM: all other assays above

O=C1OC2C(O)COC2(O)C1(O)Cc1c[nH]c2ccccc12 (stereo not given)
not listed: ACHN renal | SK-MEL-28 melanoma
> 100 µM: all other assays above
